Results from patent publication US10064826B2, “Direct compression and dry granulation processes for preparing carglumic acid tablets having less impurities than those produced by wet granulation process” (Navinta, LLC, priority 2013, dated 2018).

Experiment: Stability under stress conditions (alkaline, acidic, light, oxidizing medium)
Type: physicochemical
Conditions: light or hydrogen peroxide
Method: Both batches of carglumic acid tablets from Examples 1 and 2 are also evaluated for stability under stress conditions.
Principal degradation products are hydantoin-5-propionic acid (“5-HPA”) and diaza-1,3-dione-2,4-carboxy-7-cycloheptane. Among them, 5-HPA is toxic and thus it must be controlled below 0.1%. L-Pyroglutamic acid is another common impurity in the carglumic acid tablet.

NC(=O)N[C@@H](CCC(=O)O)C(=O)O [Carglumic acid, (2S)-2-(carbamoylamino)pentanedioic acid]
Degradation when exposed to light or an oxidizing medium: slowly degraded
